The test system of series [1] is MCF7. In words: Induction of apoptosis in human MCF7 cells assessed as apoptotic cells at 34 uM after 4 hrs by FITC Annexin-V/propidium iodide staining-based flow cytometry (reference value: 29.60%). Type of series: functional. Background: Flow cytometry measures light scatter and fluorescence of single cells or particles in a stream.
In series [2] the test system is MCF7. Put plainly: Cytotoxicity against human MCF7 cells after 14 hrs by CCK-8 assay. It is filed as functional, cell-based. The note with it: MCF7, 14 h. For orientation: Tetrazolium assays rely on reduction of a dye to a coloured formazan, in cell work by metabolically active cells.
The test system of series [3] is HeLa. Put plainly: Induction of apoptosis in human HeLa cells assessed as apoptotic cells at 69 uM after 4 hrs by FITC Annexin-V/propidium iodide staining-based flow cytometry (reference value: 13.00%). It is filed as functional.
The subject of series [4] is A549. In words: Induction of apoptosis in human A549 cells assessed as apoptotic cells at 69 uM after 4 hrs by FITC Annexin-V/propidium iodide staining-based flow cytometry (reference value: 15.60%). Type of series: functional.
Series [5] has as its system HeLa. Put plainly: Induction of apoptosis in human HeLa cells assessed as viable cells at 69 uM after 4 hrs by FITC Annexin-V/propidium iodide staining-based flow cytometry (reference value: 87.00%). It is filed as functional. The note with it: read-out: Activity.
The test system of series [6] is LoVo. Put plainly: Cytotoxicity against human LoVo cells after 14 hrs by CCK-8 assay. It is filed as functional, cell-based.
A short description of series [7]: Lipophilicity, log P of the compound. It is filed as physicochemical. The note with it: octanol/water.
The test system of series [8] is A549. In words: Induction of apoptosis in human A549 cells assessed as viable cells at 69 uM after 4 hrs by FITC Annexin-V/propidium iodide staining-based flow cytometry (reference value: 84.40%). Type of series: functional. To be noted: A549, 4 h, read-out: Activity.
Series [9] concerns A549. Put plainly: Cytotoxicity against human A549 cells after 14 hrs by CCK-8 assay. To be noted: A549, 14 h. It is filed as functional, cell-based.
Series [10] concerns LoVo. Put plainly: Induction of apoptosis in human LoVo cells assessed as apoptotic cells at 69 uM after 4 hrs by FITC Annexin-V/propidium iodide staining-based flow cytometry (reference value: 20.50%). It is filed as functional.
The test system of series [11] is A549. In words: Induction of apoptosis in human A549 cells assessed as apoptotic cells at 550 uM after 4 hrs by FITC Annexin-V/propidium iodide staining-based flow cytometry (reference value: 15.60%). It is filed as functional.
For series [12], the system named is LoVo. In words: Induction of apoptosis in human LoVo cells assessed as viable cells at 69 uM after 4 hrs by FITC Annexin-V/propidium iodide staining-based flow cytometry (reference value: 79.50%). It is filed as functional. To be noted: read-out: Activity.
Series [13] deals with MCF7. In words: Induction of apoptosis in human MCF7 cells assessed as viable cells at 34 uM after 4 hrs by FITC Annexin-V/propidium iodide staining-based flow cytometry (reference value: 70.40%). It is filed as functional. To be noted: MCF7, 4 h, read-out: Activity.
In series [14] the test system is A549. In words: Induction of apoptosis in human A549 cells assessed as viable cells at 550 uM after 4 hrs by FITC Annexin-V/propidium iodide staining-based flow cytometry (reference value: 84.40%). Type of series: functional. The note with it: A549, 4 h, read-out: Activity.
Series [15] has as its system HeLa. In words: Cytotoxicity against human HeLa cells after 14 hrs by CCK-8 assay. Type of series: functional, cell-based.
The nature of series [16]: Cytotoxicity against human PNT2 cells at 8.6 to 2200 uM after 14 hrs by CCK-8 assay. It is filed as cell-based. To be noted: pnt2, 14 h.
The test system of series [17] is MCF7. In words: Induction of apoptosis in human MCF7 cells assessed as apoptotic cells at 275 uM after 4 hrs by FITC Annexin-V/propidium iodide staining-based flow cytometry (reference value: 29.60%). Type of series: functional.
The test system of series [18] is MCF7. In words: Induction of apoptosis in human MCF7 cells assessed as viable cells at 275 uM after 4 hrs by FITC Annexin-V/propidium iodide staining-based flow cytometry (reference value: 70.40%). It is filed as functional. The note with it: MCF7, 4 h, read-out: Activity.
Series [19] has as its system LoVo. In words: Induction of apoptosis in human LoVo cells assessed as viable cells at 550 uM after 4 hrs by FITC Annexin-V/propidium iodide staining-based flow cytometry (reference value: 79.50%). The note with it: read-out: Activity. Type of series: functional.
In series [20] the test system is LoVo. In words: Induction of apoptosis in human LoVo cells assessed as apoptotic cells at 550 uM after 4 hrs by FITC Annexin-V/propidium iodide staining-based flow cytometry (reference value: 20.50%). Type of series: functional.
Series [21] relates to HeLa. Put plainly: Induction of apoptosis in human HeLa cells assessed as apoptotic cells at 550 uM after 4 hrs by FITC Annexin-V/propidium iodide staining-based flow cytometry (reference value: 13.00%). It is filed as functional.
In series [22] the test system is HeLa. In words: Induction of apoptosis in human HeLa cells assessed as viable cells at 550 uM after 4 hrs by FITC Annexin-V/propidium iodide staining-based flow cytometry (reference value: 87.00%). Type of series: functional. The note with it: read-out: Activity.
In series [23] the test system is LoVo. In words: Induction of apoptosis in human LoVo cells assessed as viable cells at 137 uM after 4 hrs by FITC Annexin-V/propidium iodide staining-based flow cytometry (reference value: 79.50%). Type of series: functional. The note with it: read-out: Activity.
In series [24] the test system is A549. In words: Induction of apoptosis in human A549 cells assessed as apoptotic cells at 8.6 uM after 4 hrs by FITC Annexin-V/propidium iodide staining-based flow cytometry (reference value: 15.60%). Type of series: functional.
Series [25] deals with LoVo. Put plainly: Induction of apoptosis in human LoVo cells assessed as apoptotic cells at 137 uM after 4 hrs by FITC Annexin-V/propidium iodide staining-based flow cytometry (reference value: 20.50%). It is filed as functional.
Series [26] relates to MCF7. Put plainly: Induction of apoptosis in human MCF7 cells assessed as apoptotic cells at 4.3 uM after 4 hrs by FITC Annexin-V/propidium iodide staining-based flow cytometry (reference value: 29.60%). Type of series: functional.
The test system of series [27] is HeLa. In words: Induction of apoptosis in human HeLa cells assessed as viable cells at 8.6 uM after 4 hrs by FITC Annexin-V/propidium iodide staining-based flow cytometry (reference value: 87.00%). It is filed as functional. The note with it: read-out: Activity.
Series [28] concerns LoVo. Put plainly: Induction of apoptosis in human LoVo cells assessed as apoptotic cells at 17 uM after 4 hrs by FITC Annexin-V/propidium iodide staining-based flow cytometry (reference value: 20.50%). It is filed as functional.
Series [29] has as its system A549. Put plainly: Induction of apoptosis in human A549 cells assessed as viable cells at 8.6 uM after 4 hrs by FITC Annexin-V/propidium iodide staining-based flow cytometry (reference value: 84.40%). Type of series: functional. The note with it: A549, 4 h, read-out: Activity.
The subject of series [30] is LoVo. Put plainly: Induction of apoptosis in human LoVo cells assessed as viable cells at 17 uM after 4 hrs by FITC Annexin-V/propidium iodide staining-based flow cytometry (reference value: 79.50%). It is filed as functional. The note with it: read-out: Activity.
Series [31] relates to HeLa. Put plainly: Induction of apoptosis in human HeLa cells assessed as apoptotic cells at 8.6 uM after 4 hrs by FITC Annexin-V/propidium iodide staining-based flow cytometry (reference value: 13.00%). Type of series: functional.
Series [32] relates to MCF7. In words: Induction of apoptosis in human MCF7 cells assessed as viable cells at 4.3 uM after 4 hrs by FITC Annexin-V/propidium iodide staining-based flow cytometry (reference value: 70.40%). It is filed as functional. The note with it: MCF7, 4 h, read-out: Activity.

One may read the IC50 as the concentration that inhibits the measured activity by half. The low end stands for greater potency in that assay, the high end for weaker potency in that assay. What is called logP is the decadic logarithm of the partition coefficient of the neutral form, usually between octanol and water.

On to `O=C1C[C@H](S[C@@H]2O[C@H](CO)[C@@H](O)[C@H](O)[C@H]2O)[C@H]2CO[C@@H]1O2`, for which the Activity with MCF7 [1] amounted to 24.9%; in the series on HeLa [3], 17.4%; in the series on A549 [4], 29.7%; in the series on LoVo [10] it was 29%; in the series with A549 [11], 25.7%; in series [16] it was 10%. Further, the Activity with MCF7 [17] is reported as 73.6%; in the series on LoVo [20], 37.65%; in the series on HeLa [21], 32.8%. For the same compound, the IC50 in the series with MCF7 [2] amounted to 366 µM; with LoVo [6], 772 µM; in the series on A549 [9], 692 µM; in the series on HeLa [15] it was 1080 µM. The viability at 69 µM in the series with HeLa [5] was 82.6%; in the series with A549 [8], 70.3%; in the series on LoVo [12], 71%. Also, the logP in series [7] is -2.05. Besides, the viability at 34 µM with MCF7 [13] was determined as 75.1%. Moreover, the viability at 550 µM with A549 [14] is 74.3%; with LoVo [19] it was 62.4%; in the series with HeLa [22], 67.2%. Moreover, the viability at 275 µM in the series on MCF7 [18] amounted to 26.4%.
Take `CC(=O)OC[C@H]1O[C@@H](S[C@H]2CC(=O)[C@@H]3OC[C@H]2O3)[C@H](OC(C)=O)[C@@H](OC(C)=O)[C@@H]1OC(C)=O`: the viability at 137 µM in the series with LoVo [23] came out at 69.7%. For the same compound, the Activity in the series on MCF7 [1] was 31.25%; in the series with A549 [24], 23.6%; in the series with HeLa [3], 36.9%; in the series on LoVo [25], 30.3%; in the series on A549 [4], 24.2%; with MCF7 [26], 36.9%. The Activity in the series on LoVo [28] came out at 27.55%; in the series with HeLa [31] it was 20%; in [16], 10%. Besides, the half-inhibitory concentration (IC50) is 47.1 µM with MCF7 [2], 166 µM in the series on LoVo [6], 119 µM with A549 [9] and 91.4 µM in the series with HeLa [15]. For the same compound, the viability at 69 µM in the series with HeLa [5] was determined as 63.1%; in the series on A549 [8] it was 75.8%. Further, the viability at 8.6 µM with HeLa [27] is 80%; with A549 [29], 76.4%. The logP in series [7] is -1.13. In addition, the viability at 17 µM in the series with LoVo [30] amounted to 72.5%. Also, the viability at 34 µM in the series on MCF7 [13] stood at 68.8%. Besides, in the series on MCF7 [32], the viability at 4.3 µM came to 63.1%.

For the origin of these results see ChEMBL document CHEMBL3352200, “Thio-sugar motif of functional CARB-pharmacophore for antineoplastic activity. Part 2” (Bioorg Med Chem Lett, 2014).
